From patent US20200002354A1, “HEXAHYDROPYRAZINOBENZ- OR -PYRIDO-OXAZEPINES CARRYING AN OXYGEN-CONTAINING SUBSTITUENT AND USE THEREOF IN THE TREATMENT OF 5-HT2C-DEPENDENT DISORDERS” (AbbVie Deutschland GmbH & Co. KG, priority 2015, published 2020) come the findings set out here.

One series concerns the target T1, 5-HT2C receptor (Homo sapiens, UniProt P28335).
T1 construct: host or cells: U2OS
Description: Human 5-HT2C functional assay (beta-arrestin2 recruitment, U2OS_HTR2C_β-Arrestin cells). It counts as cell-based. To be noted: for pEC50: Potency (EC50 5-HT2C) in functional assay, agonism, read-out: EC50 5-HT2C; for Emax: relative efficacy vs maximal effect induced by 5-HT (defined as 100%). Here is the method:
1. Human 5-HT2C Functional Assay
The functional activity of compounds of formula I was assayed by incubation with U2OS_HTR2C_β-Arrestin cells (DiscoverX, 93-0289C3) to induce beta-arrestin2 recruitment to the 5-HT2C receptor. The agonist-induced recruitment and proximity of the receptor and beta-arrestin2 leads to complementation and formation of active β-galactosidase. The enzyme complementation results in enzyme activity, which is measured following the termination of the agonist incubation using DiscoveRx's detection reagent, which contains a chemiluminescent substrate which produces a high intensity signal. Cells were plated and a medium-change to a 1% serum containing medium was performed 24 h later. The next day, test compounds were added and incubated for 1.5 h before addition of detection reagent.
The response produced was measured and compared with the response produced by 10 [mu]M 5-HT or the maximal effect induced by 5-HT (defined as 100%) to which it was expressed as a percentage response (relative efficacy).
Background: Activated receptors often draw arrestin, which recruitment assays turn into a signal.

The next series has as its target T2, human 5-HT2B receptor (Homo sapiens, UniProt P41595).
T2 construct: expressed in transfected cells; host or cells: CHO-FlpIn
Description: Human 5-HT2B functional assay (calcium mobilisation in CHO-FlpIn cells, FLIPR). The series is classed as cell-based. To be noted: based on agonism: EC50 5-HT2B/EC50 5-HT2C. Here is the method:
3. Human 5-HT2B Functional Assay
Functional activity on the 5-HT2B receptor was determined by testing the effect of the compounds I on calcium mobilisation in CHO-FlpIn cells, stably transfected with human 5-HT2B receptor. Cells were seeded into sterile black 384-well plates with clear bottom at 30,000 cells/well in a volume of 25 μl and grown overnight at 37° C., in 5% CO2 in tissue culture medium (“CHO-S-SFM II” by Invitrogen), containing 1% dialysed FCS and 50 μg/ml gentamicin (Invitrogen). On the next morning, medium was replaced by a serum free version of the same tissue culture medium for a further incubation for 4 hours at 37° C. and in 5% CO2. Cells were then loaded with a fluorescent calcium-sensitive dye in the presence of 0.07% probenecid for an hour at 37° C., according to the manufacturer's protocol (Ca5-Assay Kit, Molecular Devices), followed by an additional 60 min incubation at room temperature. Serial compound dilutions (final concentrations of 10^−10 to 10^−5M, prepared in HBSS+50 mM HEPES) were first added to the cells alone (“first addition” to assess agonism on the 5-HT2B receptor), then after 8 min, serotonin was added to the same wells at a final concentration of 10^−8 M (“second addition” to see potential antagonistic effect) and the maximal calcium response was determined using a FLIPR® Tetra instrument (Molecular Devices) in each of the two steps. The relative efficacy of the compounds was calculated as a percentage of the maximal effect induced by serotonin alone (defined as 100%). To determine EC50/IC50 values, concentration-response curves were fitted using a four-parameter logistic equation (IDBS Biobookml). Kb values were calculated from IC50 values, according to Cheng & Prusoff
A general note: A change in cytosolic calcium serves as a functional read-out for many receptors and channels.

Series [1] in a line: Metabolic stability in human liver microsomes, unbound intrinsic clearance. It counts as in vitro ADME. To be noted: liver microsomes, pH 7.4; unbound intrinsic clearance (human); Clint unbound = Cl int/fu mic; read-out: Cl int, mic unb. (h). Here is the method:
Samples of the tested compounds (0.5 μM) were preincubated together with human liver microsomes (0.25 mg of microsomal protein/mL) in 0.05 M potassium phosphate buffer of pH 7.4 in microtiter plates at 37° C. for 5 minutes. The reaction was started by adding NADPH (1.0 mM). After 0, 5, 10, 15, 20 and 30 minutes, an aliquot was removed, the reaction was cooled and stopped by adding twice the amount of quench solution consisting of acetonitrile/methanol 1:1, and containing 0.2 μM carbutamide as internal standard. The samples were frozen until analyzed. The remaining concentration of undegraded test substance was determined by liquid chromatography-tandem mass spectrometry (LC-MS/MS). The half-life (t1/2) was determined from the gradient of the ratio of the signal of (test substance/internal standard)/unit time plot, allowing the calculation of the half-life of the test substance, assuming first order kinetics, from the decrease in the concentration of the compound with time. The microsomal clearance (mClint) was calculated as follows: mClint=((ln(2)/t ½)/Microsomal Protein Concentration (mg/ml))*1000, leading to the unit of uL/min/mg. The scaled clearance (mClin_scaled) was calculated as mCLint_scaled=m CLint*(Microsomal Yield (mg/kg BW))/1000000*60, leading to the units L/h/kg. The Microsomal Yield is defined by the specifics of the used microsomes. Calculations were modified from references: Di, The Society for Biomolecular Screening, 2003, 453-462; Obach, D M D, 1999 vol 27. N 11, 1350-1359.
Calculation of Unbound Intrinsic Clearance
C1int unbound=C1 int/fu mic
(In general: Liver microsomes are a subcellular fraction often used to study metabolism.)

The target in the next series is T3, human 5-HT2A receptor (Homo sapiens, UniProt P28223).
T3 construct: expressed in transfected cells; host or cells: CHO-K1
T3 sequence (P28223 whole entry): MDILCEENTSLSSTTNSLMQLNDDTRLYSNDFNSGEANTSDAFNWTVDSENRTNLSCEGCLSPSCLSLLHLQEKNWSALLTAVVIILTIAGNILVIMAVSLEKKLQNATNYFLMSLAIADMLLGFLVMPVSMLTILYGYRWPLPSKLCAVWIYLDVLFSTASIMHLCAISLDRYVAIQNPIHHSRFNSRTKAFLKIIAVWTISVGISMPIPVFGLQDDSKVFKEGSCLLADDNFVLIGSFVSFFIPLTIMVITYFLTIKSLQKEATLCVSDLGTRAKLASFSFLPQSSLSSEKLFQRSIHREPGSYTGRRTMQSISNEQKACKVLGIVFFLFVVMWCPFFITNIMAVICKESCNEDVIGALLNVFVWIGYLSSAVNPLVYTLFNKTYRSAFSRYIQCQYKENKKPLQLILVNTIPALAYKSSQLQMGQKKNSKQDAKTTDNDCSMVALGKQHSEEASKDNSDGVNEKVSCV
Description: Human 5-HT2A functional assay (calcium mobilisation in CHO-K1 cells, FLIPR). The series is classed as cell-based. To be noted: based on agonism: EC50 5-HT2A/EC50 5-HT2C. Here is the method: 2. Human 5-HT2A Functional Assay
Functional activity on the 5-HT2A receptor was determined by testing the effect of the compounds I on calcium mobilisation in CHO-K1 cells, stably transfected with human 5-HT2A receptor. Cells were seeded into sterile black 384-well plates with clear bottom at 25,000 cells/well in a volume of 25 μl and grown for 5-6 hours at 37° C., in 5% CO2 in tissue culture medium (“Ultra CHO” by LONZA), containing 1% dialysed FCS and 50 μg/ml gentamicin (Invitrogen). After this incubation, medium was replaced by a serum free version of the same tissue culture medium followed by incubation overnight at 37° C. and in 5% CO2. Cells were then loaded with a fluorescent calcium-sensitive dye in the presence of 0.07% probenecid for an hour at 37° C., according to the manufacturer's protocol (Ca5-Assay Kit, Molecular Devices), followed by an additional 60 min incubation at room temperature. Serial compound dilutions (final concentrations of 10^−10 to 10^−5M, prepared in HBSS+50 mM HEPES) were first added to the cells alone (“first addition” to assess agonism on the 5-HT2A receptor), then after 8 min, serotonin was added to the same wells at a final concentration of 3×10^−8 M (“second addition” to see potential antagonistic effect) and the maximal calcium response was determined using a FLIPR® Tetra instrument (Molecular Devices) in each of the two steps. The relative efficacy of the compounds was calculated as a percentage of the maximal effect induced by serotonin alone (defined as 100%). To determine EC50/IC50 values, concentration-response curves were fitted using a four-parameter logistic equation (IDBS Biobookml). Kb values were calculated from IC50 values, according to Cheng & Prusoff

Broadly, the pEC50 is the negative decadic logarithm of the EC50, by convention in mol/L. In general, Emax refers to the maximal effect, on the per cent scale that the assay sets.

pEC50: −log10 of the molar value.

T1 sequence (P28335 33-458): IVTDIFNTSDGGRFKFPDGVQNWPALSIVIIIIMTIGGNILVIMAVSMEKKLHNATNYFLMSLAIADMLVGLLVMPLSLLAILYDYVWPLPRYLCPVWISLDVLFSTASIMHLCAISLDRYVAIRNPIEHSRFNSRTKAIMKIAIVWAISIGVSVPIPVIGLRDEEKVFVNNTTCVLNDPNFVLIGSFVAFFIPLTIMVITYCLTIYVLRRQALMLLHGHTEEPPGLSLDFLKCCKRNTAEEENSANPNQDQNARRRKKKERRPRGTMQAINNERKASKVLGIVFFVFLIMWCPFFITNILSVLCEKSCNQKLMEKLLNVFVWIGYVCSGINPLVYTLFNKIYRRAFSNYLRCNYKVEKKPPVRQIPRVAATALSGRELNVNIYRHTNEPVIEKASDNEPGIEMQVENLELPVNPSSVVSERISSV
T1 sequence (P32121 whole entry partner): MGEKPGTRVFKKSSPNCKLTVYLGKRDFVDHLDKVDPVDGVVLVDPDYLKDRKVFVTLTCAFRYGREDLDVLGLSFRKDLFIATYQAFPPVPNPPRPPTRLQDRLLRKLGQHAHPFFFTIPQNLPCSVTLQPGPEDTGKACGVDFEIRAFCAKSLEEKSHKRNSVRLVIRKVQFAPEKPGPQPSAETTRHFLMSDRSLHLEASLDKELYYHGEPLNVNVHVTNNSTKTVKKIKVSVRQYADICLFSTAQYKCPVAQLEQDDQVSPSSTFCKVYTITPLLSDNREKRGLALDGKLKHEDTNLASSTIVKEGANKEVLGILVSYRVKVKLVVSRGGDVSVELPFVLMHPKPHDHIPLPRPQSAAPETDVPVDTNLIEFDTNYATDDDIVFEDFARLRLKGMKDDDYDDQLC
T2 sequence (P41595 whole entry): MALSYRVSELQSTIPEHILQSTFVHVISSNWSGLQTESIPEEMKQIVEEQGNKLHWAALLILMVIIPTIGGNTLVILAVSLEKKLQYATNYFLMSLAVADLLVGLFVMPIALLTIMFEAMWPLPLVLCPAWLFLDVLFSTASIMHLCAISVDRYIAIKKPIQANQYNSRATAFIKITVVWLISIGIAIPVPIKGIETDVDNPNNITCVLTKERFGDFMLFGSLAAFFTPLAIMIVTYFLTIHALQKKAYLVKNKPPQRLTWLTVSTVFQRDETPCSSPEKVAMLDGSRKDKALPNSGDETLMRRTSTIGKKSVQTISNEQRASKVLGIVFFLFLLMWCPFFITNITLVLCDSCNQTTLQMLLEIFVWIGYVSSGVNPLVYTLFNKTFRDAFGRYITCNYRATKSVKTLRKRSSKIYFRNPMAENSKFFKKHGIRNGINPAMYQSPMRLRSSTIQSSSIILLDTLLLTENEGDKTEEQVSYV

For `Cl.[2H]C([2H])([2H])OC[C@@H]1C[C@@H]2CNCCN2c2cc(F)cc(Cl)c2O1` [Example 19, (4aR,6S)-8-Chloro-10-fluoro-6-(trideuteriomethoxymethyl)-2,3,4,4a,5,6-hexahydro-1H-pyrazino[2,1-d][1,5]benzoxazepine hydrochloride], on 5-HT2C receptor, the negative-log EC50 (pEC50) is > 7.70 and the maximal response (Emax) was > 70%. Further, the “Selectivity over 5-HT2B” value at human 5-HT2B receptor is given as “++ (from >30 to 100)”. In addition, in series [1], the CLint scaled at 0.5 μM is < 83.3 mL/min/kg. Besides, the “Selectivity over 5-HT2A” value at human 5-HT2A receptor was “+++ (>100)”.

As to `COC[C@H]1C[C@@H]2CNCCN2c2cc(F)cc(C(F)F)c2O1.Cl` [Example 32, (4aR,6R)-8-(Difluoromethyl)-10-fluoro-6-(methoxymethyl)-2,3,4,4a,5,6-hexahydro-1H-pyrazino[2,1-d][1,5]benzoxazepine hydrochloride], on 5-HT2C receptor, the pEC50 is 6.00 to 6.70 and the Emax was > 70%. The “Selectivity over 5-HT2B” value on human 5-HT2B receptor is listed as “++ (from >30 to 100)”. Besides, the CLint scaled at 0.5 μM in series [1] is < 83.3 mL/min/kg. Further, the “Selectivity over 5-HT2A” value on human 5-HT2A receptor is reported as “++ (from >30 to 100)”.

Regarding `COC[C@@H]1C[C@@H]2CNCCN2c2cc(F)c(F)c(Cl)c2O1.Cl` [Example 38, (4aR,6S)-8-Chloro-9,10-difluoro-6-(methoxymethyl)-2,3,4,4a,5,6-hexahydro-1H-pyrazino[2,1-d][1,5]benzoxazepine hydrochloride], on 5-HT2C receptor, the pEC50 was > 7.70 and the Emax was > 70%. The “Selectivity over 5-HT2B” value at human 5-HT2B receptor is on record as “++ (from >30 to 100)”. Also, the CLint scaled at 0.5 μM in series [1] was < 83.3 mL/min/kg. For the same compound, at human 5-HT2A receptor, the “Selectivity over 5-HT2A” value is listed as “++ (from >30 to 100)”.

As to `C#Cc1cc(F)cc2c1O[C@H](COC)C[C@@H]1CNCCN21.Cl` [Example 34, (4aR,6S)-8-Ethynyl-10-fluoro-6-(methoxymethyl)-2,3,4,4a,5,6-hexahydro-1H-pyrazino[2,1-d][1,5]benzoxazepine hydrochloride], at 5-HT2C receptor, the pEC50 is > 7.70 and the Emax was > 70%. Also, the “Selectivity over 5-HT2B” value at human 5-HT2B receptor was “+ (from 10 to 30)”. Also, the CLint scaled at 0.5 μM in series [1] was < 83.3 mL/min/kg. Besides, the “Selectivity over 5-HT2A” value at human 5-HT2A receptor is on record as “+++ (>100)”.

Regarding `COC[C@@H]1C[C@@H]2CNCCN2c2cccc(Cl)c2O1.Cl` [Example 1, (4aR,6S)-8-Chloro-6-(methoxymethyl)-2,3,4,4a,5,6-hexahydro-1H-pyrazino[2,1-d][1,5]benzoxazepine hydrochloride], at 5-HT2C receptor, the pEC50 was > 7.70 and the Emax is > 70%. In addition, at human 5-HT2B receptor, the “Selectivity over 5-HT2B” value is listed as “+++ (>100)”. Besides, the CLint scaled at 0.5 μM in series [1] is < 83.3 mL/min/kg. For the same compound, on human 5-HT2A receptor, the “Selectivity over 5-HT2A” value is listed as “+++ (>100)”.

Regarding `COC[C@@H]1C[C@@H]2CNCCN2c2cc(C(F)(F)F)cc(Cl)c2O1` [Example 45, (4aR,6S)-8-Chloro-6-(methoxymethyl)-10-(trifluoromethyl)-2,3,4,4a,5,6-hexahydro-1H-pyrazino[2,1-d][1,5]benzoxazepine], at 5-HT2C receptor, the pEC50 was 6.70 to 7.70 and the Emax was > 70%. Besides, the “Selectivity over 5-HT2B” value on human 5-HT2B receptor was “+++ (>100)”. Further, the CLint scaled at 0.5 μM in series [1] lay in the range of 83.3 to 833 mL/min/kg. Moreover, the “Selectivity over 5-HT2A” value on human 5-HT2A receptor is “+++ (>100)”.

`COC[C@@H]1C[C@@H]2CNCCN2c2cc(F)cc(F)c2O1.Cl` [Example 11, (4aR,6S)-8,10-Difluoro-6-(methoxymethyl)-2,3,4,4a,5,6-hexahydro-1H-pyrazino[2,1-d][1,5]benzoxazepine hydrochloride]: on 5-HT2C receptor, the pEC50 is 6.70 to 7.70 and the Emax was > 70%. Further, the “Selectivity over 5-HT2B” value on human 5-HT2B receptor is “++ (from >30 to 100)”. The CLint scaled at 0.5 μM in series [1] is < 83.3 mL/min/kg. Also, on human 5-HT2A receptor, the “Selectivity over 5-HT2A” value is given as “+++ (>100)”.

Consider `COC[C@@H]1C[C@@H]2CNCCN2c2cc(OC)cc(Cl)c2O1.Cl` [Example 44, (4aR,6S)-8-Chloro-10-methoxy-6-(methoxymethyl)-2,3,4,4a,5,6-hexahydro-1H-pyrazino[2,1-d][1,5]benzoxazepine hydrochloride], for which, on 5-HT2C receptor, the pEC50 was 6.70 to 7.70 and the Emax was > 70%. Besides, on human 5-HT2B receptor, the “Selectivity over 5-HT2B” value is given as “++ (from >30 to 100)”. The CLint scaled at 0.5 μM in series [1] is < 83.3 mL/min/kg.

For `COC[C@@H]1C[C@@H]2CNCCN2c2cc(Cl)cc(F)c2O1` [Example 25, (4aR,6S)-10-Chloro-8-fluoro-6-(methoxymethyl)-2,3,4,4a,5,6-hexahydro-1H-pyrazino[2,1-d][1,5]benzoxazepine], at 5-HT2C receptor, the pEC50 was 6.70 to 7.70 and the Emax was > 70%. For the same compound, the CLint scaled at 0.5 μM in series [1] is < 83.3 mL/min/kg. Further, the “Selectivity over 5-HT2A” value at human 5-HT2A receptor is reported as “+++ (>100)”.

Turning to `COC[C@@H]1C[C@@H]2CNCCN2c2cc(F)cc(C)c2O1.Cl` [Example 41, (4aR,6S)-10-Fluoro-6-(methoxymethyl)-8-methyl-2,3,4,4a,5,6-hexahydro-1H-pyrazino[2,1-d][1,5]benzoxazepine hydrochloride], at 5-HT2C receptor, the pEC50 is > 7.70 and the Emax was > 70%. Also, in series [1], the CLint scaled at 0.5 μM is < 83.3 mL/min/kg. The “Selectivity over 5-HT2A” value at human 5-HT2A receptor is recorded as “+++ (>100)”.

`COC[C@@H]1C[C@@H]2CNCCN2c2c(F)c(F)c(F)c(Cl)c2O1.Cl` [Example 55, (4aR,6S)-8-Chloro-9,10,11-trifluoro-6-(methoxymethyl)-2,3,4,4a,5,6-hexahydro-1H-pyrazino[2,1-d][1,5]benzoxazepine hydrochloride]: at 5-HT2C receptor, the pEC50 was > 7.70 and the Emax was > 70%. Besides, on human 5-HT2B receptor, the “Selectivity over 5-HT2B” value is “+++ (>100)”. Besides, the “Selectivity over 5-HT2A” value at human 5-HT2A receptor is on record as “+++ (>100)”.
